Results from patent US20250034212A1, “PEPTIDE” (PEPTIDREAM INC., priority 2021, published 2025).
Starred links: 1 amine or outer side, 2 acyl side, 3 side chain; linkers in the order of their positions; H or OH if unused. Positions of bridges follow the written chain, without caps; N, C: chain ends. Non-standard residues stand in square brackets, D forms with d. Residues, ends and D or L forms follow the SMILES beside them. Groups on a side chain read outwards from the residue. *: point of attachment. Meglumine = CN(C[C@H](O)[C@@H](O)[C@H](O)[C@H](O)CO)*; Trp(6-aza) = N[C@@H](Cc1c[nH]c2cnccc12)C(=O)O; Trp(7-aza) = N[C@@H](Cc1c[nH]c2ncccc12)C(=O)O; Piperazinyl(4-CH2COOH) = O=C(O)CN1CCN(*)CC1; 1Nal = N[C@@H](Cc1cccc2ccccc12)C(=O)O; Gly(NCH2CH2Ph) = O=C(O)CNCCc1ccccc1; 4Pal = N[C@@H](Cc1ccncc1)C(=O)O; CO = O=C([*:1])[*:2]

Molecular target: T1, recombinant human TGF-β1 (Homo sapiens, UniProt P01137)
T1 construct: purchased R&D systems
T1 sequence (P01137 279-390 limits assumed): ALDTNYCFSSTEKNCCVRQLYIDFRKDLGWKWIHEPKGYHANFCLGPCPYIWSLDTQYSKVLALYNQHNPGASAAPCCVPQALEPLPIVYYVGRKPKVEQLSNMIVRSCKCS
Assay: SBE reporter assay in SBE reporter-HEK293 cells, TGF-β1 stimulation
Type: cell-based
Conditions: TGF-β1 0.13 nM, 18 hours; for inhibition at 75 pM: peptide 0.075 nM; for inhibition at 0.00075 µM: peptide 0.75 nM; for inhibition at 0.0075 µM: peptide 7.5 nM; for inhibition at 0.075 µM: peptide 75.0 nM
Description: The inhibitory activity of the peptide can be calculated without limitation while the maximum signal induced by TGF-β is set to 0% inhibition and no stimulation is set to 100% inhibition. When the peptide is used at an appropriate concentration, for example, at the optimal concentration, the inhibitory activity is not limited but the inhibition is 5% or more, 10% or more, 20% or more, 30% or more, 40% or more, 50% or more, 60% or more, 70% or more, 80% or more, or 90% or more.
In this Example, the TGF-β1 inhibitory activity of the peptide of the present invention consisting of the amino acid sequence set forth in SEQ ID NOs: 2-33 synthesized in Examples 1 to 5 and 7 was evaluated by an SBE reporter assay using the SBE reporter-HEK293 cell system (BP Bioscience) as follows.
SBE reporter-HEK293 cells were cultured in E-MEM (Wako) containing 10% FBS (Sigma). The cells were detached using Accutase (Innovative Cell Technologies), suspended in E-MEM containing 0.5% FBS, seeded onto a 96-well plate(s) at a concentration of 45,000 cells per well, and cultured overnight. The next day, the peptide was added and allowed to stand for 20 min, and recombinant human TGF-β1 (R&D systems) or recombinant human TGF-β2 (R&D systems) was then added at 0.13 nM and cultured for 18 hours.
Thereafter, luciferase assay ONE-Glo reagent was added to each well and the plate was shaken for 5 min. A SpectraMax Paradigm multimode microplate reader (Molecular Devices) was then used for signal detection. The obtained signals were analyzed by GraphPad Prism. The inhibitory activity of the peptide was calculated while the maximum signal induced by TGF-β was set to 0% inhibition and no stimulation was set to 100% inhibition.

## CC(C)[C@@H]1NC(=O)CN(CCc2ccccc2)C(=O)[C@H](CC(=O)O)NC(=O)[C@H](CC(=O)O)NC(=O)[C@H](Cc2ccc(O)cc2)NC(=O)[C@H](C(C)C)NC(=O)[C@H](CC(N)=O)NC(=O)[C@H](C(C)C)NC(=O)[C@H](C(C)C)NC(=O)[C@H](Cc2c[nH]c3ccccc23)NC(=O)[C@H](Cc2ccccc2)NC(=O)CSC[C@@H](C(=O)NCC(N)=O)NC(=O)[C@H](C(C)C)NC(=O)[C@H](Cc2c[nH]cn2)NC(=O)[C@H](Cc2ccc(O)cc2)NC(=O)[C@H](Cc2cccc3ccccc23)NC1=O [TGFb1_003] ({CH2CO}-FWVVNVYDD[Gly(NCH2CH2Ph)]V[1Nal]YHVCG-NH2; thioether N-16)
  inhibition at 75 pM: 1.6%
  inhibition at 0.00075 µM: 65.2%
  inhibition at 0.0075 µM: 97.3%
  inhibition at 0.075 µM: 98.8%

## CC(C)[C@@H]1NC(=O)CN(CCc2ccccc2)C(=O)[C@H](CC(=O)O)NC(=O)[C@H](CC(=O)O)NC(=O)[C@H](Cc2ccc(O)cc2)NC(=O)[C@H](C(C)C)NC(=O)[C@H](CC(N)=O)NC(=O)[C@H](C(C)C)NC(=O)[C@H](C(C)C)NC(=O)[C@H](Cc2c[nH]c3cnccc23)NC(=O)[C@H](Cc2ccccc2)NC(=O)CSC[C@@H](C(=O)NCC(N)=O)NC(=O)[C@H](C(C)C)NC(=O)[C@H](Cc2c[nH]cn2)NC(=O)[C@H](Cc2ccc(O)cc2)NC(=O)[C@H](Cc2cccc3ccccc23)NC1=O [TGFb1_004] ({CH2CO}-F[Trp(6-aza)]VVNVYDD[Gly(NCH2CH2Ph)]V[1Nal]YHVCG-NH2; thioether N-16)
  inhibition at 75 pM: 0%
  inhibition at 0.00075 µM: 0.9%
  inhibition at 0.0075 µM: 70.1%
  inhibition at 0.075 µM: 94.9%

## CC(C)[C@@H]1NC(=O)CN(CCc2ccccc2)C(=O)[C@H](CC(=O)O)NC(=O)[C@H](CC(=O)O)NC(=O)[C@H](Cc2ccc(O)cc2)NC(=O)[C@H](C(C)C)NC(=O)[C@H](CC(N)=O)NC(=O)[C@H](C(C)C)NC(=O)[C@H](C(C)C)NC(=O)[C@H](Cc2c[nH]c3ncccc23)NC(=O)[C@H](Cc2ccccc2)NC(=O)CSC[C@@H](C(=O)NCC(N)=O)NC(=O)[C@H](C(C)C)NC(=O)[C@H](Cc2c[nH]cn2)NC(=O)[C@H](Cc2ccc(O)cc2)NC(=O)[C@H](Cc2cccc3ccccc23)NC1=O [TGFb1_005] ({CH2CO}-F[Trp(7-aza)]VVNVYDD[Gly(NCH2CH2Ph)]V[1Nal]YHVCG-NH2; thioether N-16)
  inhibition at 75 pM: 0.4%
  inhibition at 0.00075 µM: 47%
  inhibition at 0.0075 µM: 90.8%
  inhibition at 0.075 µM: 98.9%

## CC(C)[C@@H]1NC(=O)CN(CCc2ccccc2)C(=O)[C@H](CC(=O)O)NC(=O)[C@H](CC(=O)O)NC(=O)[C@H](Cc2ccncc2)NC(=O)[C@H](C(C)C)NC(=O)[C@H](CC(N)=O)NC(=O)[C@H](CCCCN)NC(=O)[C@H](C(C)C)NC(=O)[C@H](Cc2cccc3ccccc23)NC(=O)[C@H](Cc2ccccc2)NC(=O)CSC[C@@H](C(=O)NCC(N)=O)NC(=O)[C@H](C(C)C)NC(=O)[C@H](Cc2c[nH]cn2)NC(=O)[C@H](Cc2ccc(O)cc2)NC(=O)[C@H](Cc2cccc3ccccc23)NC1=O [TGFb1_007] ({CH2CO}-F[1Nal]VKNV[4Pal]DD[Gly(NCH2CH2Ph)]V[1Nal]YHVCG-NH2; thioether N-16)
  inhibition at 75 pM: 0.1%
  inhibition at 0.00075 µM: 37.5%
  inhibition at 0.0075 µM: 83.5%
  inhibition at 0.075 µM: 96.7%

## CC(C)[C@@H]1NC(=O)CN(CCc2ccccc2)C(=O)[C@H](CC(=O)O)NC(=O)[C@H](CC(=O)O)NC(=O)[C@H](Cc2ccncc2)NC(=O)[C@H](C(C)C)NC(=O)[C@H](CC(N)=O)NC(=O)[C@H](C(C)C)NC(=O)[C@H](C(C)C)NC(=O)[C@H](Cc2c[nH]c3ncccc23)NC(=O)[C@H](Cc2ccccc2)NC(=O)CSC[C@@H](C(=O)NCC(N)=O)NC(=O)[C@H](C(C)C)NC(=O)[C@H](Cc2c[nH]cn2)NC(=O)[C@H](Cc2ccc(O)cc2)NC(=O)[C@H](Cc2cccc3ccccc23)NC1=O [TGFb1_008] ({CH2CO}-F[Trp(7-aza)]VVNV[4Pal]DD[Gly(NCH2CH2Ph)]V[1Nal]YHVCG-NH2; thioether N-16)
  inhibition at 75 pM: 3.8%
  inhibition at 0.00075 µM: 56.8%
  inhibition at 0.0075 µM: 94.6%
  inhibition at 0.075 µM: 98.4%

## CC(C)[C@@H]1NC(=O)CN(CCc2ccccc2)C(=O)[C@H](CC(=O)O)NC(=O)[C@H](CC(=O)O)NC(=O)[C@H](Cc2ccncc2)NC(=O)[C@H](C(C)C)NC(=O)[C@H](CC(N)=O)NC(=O)[C@H](C(C)C)NC(=O)[C@H](C(C)C)NC(=O)[C@H](Cc2cccc3ccccc23)NC(=O)[C@H](Cc2ccccc2)NC(=O)CSC[C@@H](C(=O)NCC(N)=O)NC(=O)[C@H](C(C)C)NC(=O)[C@H](Cc2c[nH]cn2)NC(=O)[C@H](Cc2ccncc2)NC(=O)[C@H](Cc2cccc3ccccc23)NC1=O [TGFb1_009] ({CH2CO}-F[1Nal]VVNV[4Pal]DD[Gly(NCH2CH2Ph)]V[1Nal][4Pal]HVCG-NH2; thioether N-16)
  inhibition at 75 pM: 2.7%
  inhibition at 0.00075 µM: 53%
  inhibition at 0.0075 µM: 94.8%
  inhibition at 0.075 µM: 99.6%

## CC(C)[C@@H]1NC(=O)CN(CCc2ccccc2)C(=O)[C@H](CC(=O)O)NC(=O)[C@H](CC(=O)O)NC(=O)[C@H](Cc2ccncc2)NC(=O)[C@H](C(C)C)NC(=O)[C@H](CC(N)=O)NC(=O)[C@H](CCCCNC(=O)N2CCN(CC(=O)O)CC2)NC(=O)[C@H](C(C)C)NC(=O)[C@H](Cc2cccc3ccccc23)NC(=O)[C@H](Cc2ccccc2)NC(=O)CSC[C@@H](C(=O)NCC(N)=O)NC(=O)[C@H](C(C)C)NC(=O)[C@H](Cc2c[nH]cn2)NC(=O)[C@H](Cc2ccc(O)cc2)NC(=O)[C@H](Cc2cccc3ccccc23)NC1=O [TGFb1_010] ({CH2CO}-F[1Nal]VK([CO-Piperazinyl(4-CH2COOH)])NV[4Pal]DD[Gly(NCH2CH2Ph)]V[1Nal]YHVCG-NH2; thioether N-16)
  inhibition at 75 pM: 2%
  inhibition at 0.00075 µM: 63.8%
  inhibition at 0.0075 µM: 97.9%
  inhibition at 0.075 µM: 99.9%

## CC(C)[C@@H]1NC(=O)CN(CCc2ccccc2)C(=O)[C@H](CCCCNC(=O)N2CCN(CC(=O)O)CC2)NC(=O)[C@H](CC(=O)O)NC(=O)[C@H](Cc2ccncc2)NC(=O)[C@H](C(C)C)NC(=O)[C@H](CC(N)=O)NC(=O)[C@H](C(C)C)NC(=O)[C@H](C(C)C)NC(=O)[C@H](Cc2cccc3ccccc23)NC(=O)[C@H](Cc2ccccc2)NC(=O)CSC[C@@H](C(=O)NCC(N)=O)NC(=O)[C@H](C(C)C)NC(=O)[C@H](Cc2c[nH]cn2)NC(=O)[C@H](Cc2ccc(O)cc2)NC(=O)[C@H](Cc2cccc3ccccc23)NC1=O [TGFb1_011] ({CH2CO}-F[1Nal]VVNV[4Pal]DK([CO-Piperazinyl(4-CH2COOH)])[Gly(NCH2CH2Ph)]V[1Nal]YHVCG-NH2; thioether N-16)
  inhibition at 75 pM: 6.1%
  inhibition at 0.00075 µM: 76.3%
  inhibition at 0.0075 µM: 97.9%
  inhibition at 0.075 µM: 100%

## CC(C)[C@@H]1NC(=O)CN(CCc2ccccc2)C(=O)[C@H](CC(=O)O)NC(=O)[C@H](CC(=O)O)NC(=O)[C@H](Cc2ccncc2)NC(=O)[C@H](C(C)C)NC(=O)[C@H](CC(N)=O)NC(=O)[C@H](CCCCNC(=O)N(C)C[C@H](O)[C@@H](O)[C@H](O)[C@H](O)CO)NC(=O)[C@H](C(C)C)NC(=O)[C@H](Cc2cccc3ccccc23)NC(=O)[C@H](Cc2ccccc2)NC(=O)CSC[C@@H](C(=O)NCC(N)=O)NC(=O)[C@H](C(C)C)NC(=O)[C@H](Cc2c[nH]cn2)NC(=O)[C@H](Cc2ccc(O)cc2)NC(=O)[C@H](Cc2cccc3ccccc23)NC1=O [TGFb1_014] ({CH2CO}-F[1Nal]VK([CO-Meglumine])NV[4Pal]DD[Gly(NCH2CH2Ph)]V[1Nal]YHVCG-NH2; thioether N-16)
  inhibition at 75 pM: 0%
  inhibition at 0.00075 µM: 64.8%
  inhibition at 0.0075 µM: 97.2%
  inhibition at 0.075 µM: 98.8%

## CC(C)[C@@H]1NC(=O)CN(CCc2ccccc2)C(=O)[C@H](CCCCNC(=O)N(C)C[C@H](O)[C@@H](O)[C@H](O)[C@H](O)CO)NC(=O)[C@H](CC(=O)O)NC(=O)[C@H](Cc2ccncc2)NC(=O)[C@H](C(C)C)NC(=O)[C@H](CC(N)=O)NC(=O)[C@H](C(C)C)NC(=O)[C@H](C(C)C)NC(=O)[C@H](Cc2cccc3ccccc23)NC(=O)[C@H](Cc2ccccc2)NC(=O)CSC[C@@H](C(=O)NCC(N)=O)NC(=O)[C@H](C(C)C)NC(=O)[C@H](Cc2c[nH]cn2)NC(=O)[C@H](Cc2ccc(O)cc2)NC(=O)[C@H](Cc2cccc3ccccc23)NC1=O [TGFb1_015] ({CH2CO}-F[1Nal]VVNV[4Pal]DK([CO-Meglumine])[Gly(NCH2CH2Ph)]V[1Nal]YHVCG-NH2; thioether N-16)
  inhibition at 75 pM: 0%
  inhibition at 0.00075 µM: 76.9%
  inhibition at 0.0075 µM: 98.7%
  inhibition at 0.075 µM: 98.4%
